Test [1] concerns P. aerug. The test can be described thus: antibiotic activity (MIC). It counts as cell-based.
The test system of test [2] is chick embryo vitelline capillaries. The test can be described thus: chick embryo vitelline capillary regression assay. It counts as in vivo. Also on record: key to vitelline capillary regression: +: Vascular reactivity; 0: No vascular reactivity; +/-: Equivocal reactivity. The following applies: 60 minutes. On the procedure: Using the chick embryo vitelline capillaries assay, compounds were tested for their ability to induce capillary regression. Each compound was applied in 0.1 ml of 15% Ficol 400 and PBS onto the embryo, and vascular regression was assessed after 60 minutes.
The 3-day chick embryo consists of an embryonic disc from which numerous vessels emerge and return, forming a "figure 8"-shaped structure--the embryo in the center with vascular loops extending outward over both poles. […] Following a lag period of around 15 minutes, the constriction of continuity between capillary and secondary vessels, generally on the "venous" side, was observed. Continued pulsatile blood flow progressed, resulting in a "swelling" of the blind tube, followed by a pinching off of the remaining connection and formation of an enclosed vascular sac resembling a "blood island." This process progressed until only the largest vessels remained intact.

The test system of test [3] is stage 59-60 Xenopus tadpoles. The following applies: tadpole assay.

≈ marks a conversion by molar mass, not a printed value.

`CC(C)CCC[C@@H](C)[C@H]1CC[C@H]2[C@@H]3CC[C@H]4C[C@H](NCCCCN)CC[C@]4(C)[C@H]3CC[C@]12C` registered an MIC in test [1] of over 256 µg/mL.
In turn, `CC(C)CCC[C@@H](C)[C@H]1CC[C@H]2[C@@H]3CC[C@H]4C[C@@H](NCCCCN)CC[C@]4(C)[C@H]3CC[C@]12C` gave an MIC in test [1] of over 256 µg/mL.
On to `CC(COS(=O)(=O)O)C(=O)CC[C@@H](C)[C@H]1CC[C@H]2[C@@H]3[C@H](O)C[C@H]4C[C@@H](NCCCNCCCCN)CC[C@]4(C)[C@H]3CC[C@]12C` (stereo partly shown), for which, in test [1], the MIC worked out at 128 µg/mL (≈ 199 µM).
For the molecule `CC(C)CCCC(C)[C@H]1CCC2C3C(CC[C@@]21C)[C@@]1(C)CC[C@H](N)C[C@@H]1C[C@H]3O` (stereo partly shown), the MIC in test [1] was over 256 µg/mL.
Same read-out and setting: next, `CC(C)CCCC(C)[C@H]1CCC2C3C(CC[C@@]21C)[C@@]1(C)CC[C@@H](NCCCNCCCCN)C[C@@H]1C[C@H]3O` (stereo partly shown): 64 µg/mL (≈ 120 µM); `CC(C)CCCC(C)[C@H]1CCC2C3C(CC[C@@]21C)[C@@]1(C)CC[C@H](NCCCNCCCCN)C[C@@H]1C[C@H]3O` (stereo partly shown): 64 µg/mL (≈ 120 µM); `COC(=O)CCC(C)[C@H]1CCC2C3C(CC[C@@]21C)[C@@]1(C)CC[C@H](NCCN)C[C@H]1C[C@H]3O` (stereo partly shown): 128 µg/mL (≈ 285 µM).
The molecule `COC(=O)CCC(C)[C@H]1CCC2C3C(CC[C@@]21C)[C@@]1(C)CC[C@H](NCCCNCCCCNCCCN)C[C@H]1C[C@H]3O` (stereo partly shown) had an MIC in test [1] of 64 µg/mL (≈ 108 µM).
`CC(CCC(=O)O)[C@H]1CCC2C3C(CC[C@@]21C)[C@@]1(C)CC[C@@H](NCCCNCCCCNCCCN)C[C@H]1C[C@H]3O` (stereo partly shown): in test [1], the lowest concentration to inhibit growth (MIC) was 8 µg/mL (≈ 13.9 µM).
Still for that read-out and setting: the figure for `CC(CCC(=O)O)[C@H]1CCC2C3C(CC[C@@]21C)[C@@]1(C)CC[C@@H](NCCN)C[C@H]1C[C@H]3O` (stereo partly shown) is 64 µg/mL (≈ 147 µM); for `CC(CCC(=O)O)[C@H]1CCC2C3C(CC[C@@]21C)[C@@]1(C)CC[C@H](NCCN)C[C@H]1C[C@H]3O` (stereo partly shown) it is 256 µg/mL (≈ 589 µM); for `COC(=O)CCC(C)[C@H]1CCC2C3CC[C@@H]4C[C@H](NCCN)CC[C@]4(C)C3C[C@H](O)[C@@]21C` (stereo partly shown) it is 16 to 32 µg/mL (≈ 35.7 to 71.3 µM).
In turn, `CC(CCC(=O)O)[C@H]1CCC2C3CC[C@@H]4C[C@H](NCCN)CC[C@]4(C)C3C[C@H](O)[C@@]21C` (stereo partly shown) displayed an MIC in test [1] of 128 µg/mL (≈ 294 µM).
Still for that read-out and setting: next, `COC(=O)CCC(C)[C@H]1CCC2C3C[C@@H](O)[C@H]4C[C@@H](NCCN)CC[C@]4(C)C3CC[C@@]21C` (stereo partly shown): 64 µg/mL (≈ 143 µM); `CC(CCC(=O)O)[C@H]1CCC2C3C[C@@H](O)[C@H]4C[C@@H](NCCN)CC[C@]4(C)C3CC[C@@]21C` (stereo partly shown): 128 µg/mL (≈ 294 µM); `COC(=O)CCC(C)[C@H]1CCC2C3CC[C@@H]4C[C@H](NCCCNCCCCNCCCN)CC[C@]4(C)C3C[C@H](O)[C@@]21C` (stereo partly shown): 8 µg/mL (≈ 13.5 µM).
On the same count and under the same terms, next, `CC(CCC(=O)O)[C@H]1CCC2C3CC[C@@H]4C[C@H](NCCCNCCCCNCCCN)CC[C@]4(C)C3C[C@H](O)[C@@]21C` (stereo partly shown): 4 µg/mL (≈ 6.93 µM); `COC(=O)CCC(C)[C@H]1CCC2C3CC[C@H]4C[C@@H](NCCCNCCCCNCCCN)CC[C@]4(C)C3CC[C@@]21C` (stereo partly shown): 64 µg/mL (≈ 111 µM); `COC(=O)CCC(C)[C@H]1CCC2C3C[C@@H](O)[C@H]4C[C@H](NCCCNCCCCNCCCN)CC[C@]4(C)C3CC[C@@]21C` (stereo partly shown): 128 µg/mL (≈ 217 µM).
In test [1], `COC(=O)CCC(C)[C@H]1CCC2C3C[C@@H](O)[C@H]4C[C@@H](NCCCNCCCCNCCCN)CC[C@]4(C)C3CC[C@@]21C` (stereo partly shown) showed an MIC of 32 µg/mL (≈ 54.2 µM).
In test [1], `CC(CCC(=O)O)[C@H]1CCC2C3C[C@@H](O)[C@H]4C[C@@H](NCCCNCCCCNCCCN)CC[C@]4(C)C3CC[C@@]21C` (stereo partly shown) registered an MIC of 8 µg/mL (≈ 13.9 µM).
In the case of `CC(C)CCC[C@@H](C)[C@H]1CC[C@H]2[C@@H]3[C@H](O)C[C@H]4C[C@@H](NCCCNCCCCN)CC[C@]4(C)[C@H]3CC[C@]12C` [Compound 371], the vitelline capillary regression is 0 in test [2] (0.001 μg applied); 0 in test [2] (0.01 μg applied); 0 in test [2] (0.1 μg applied); “+/-” in test [2] (1 μg applied); “+” in test [2] (10 μg applied). Moreover, the “tadpole response similar to compound 1436” value in test [3] is “produce effects like those produced by compound 1436”.
`COC(=O)CC[C@@H](C)[C@H]1CC[C@H]2[C@@H]3[C@H](O)C[C@@H]4C[C@@H](NCCN)CC[C@]4(C)[C@H]3CC[C@]12C` [Compound 409]: the vitelline capillary regression in test [2] (1 μg applied) is 0. Besides, the “tadpole response similar to compound 1437” value in test [3] is “functionally similar to compound 1437”.
Turning to `COC(=O)CC[C@@H](C)[C@H]1CC[C@H]2[C@@H]3[C@H](O)C[C@@H]4C[C@H](NCCN)CC[C@]4(C)[C@H]3CC[C@]12C` [Compound 410], the vitelline capillary regression in test [2] (0.001 μg applied) is given as 0; in test [2] (0.01 μg applied), “+/-”; in test [2] (0.1 μg applied) it was “+/-”; in test [2] (1 μg applied) it was “+”. In test [3], the “tadpole response similar to compound 1437” value is “functionally similar to compound 1437”.
Take `C[C@H](CCC(=O)O)[C@H]1CC[C@H]2[C@@H]3[C@H](O)C[C@@H]4C[C@H](NCCCNCCCCNCCCN)CC[C@]4(C)[C@H]3CC[C@]12C` [Compound 412]: the vitelline capillary regression is reported as 0 in test [2] (0.001 μg applied), 0 in test [2] (0.01 μg applied), 0 in test [2] (0.1 μg applied) and “+” in test [2] (1 μg applied). In addition, the “tadpole response similar to FX 3” value in test [3] was “exhibiting pharmacologic activity similar to that seen for FX 3”.
As for `C[C@H](CCC(=O)O)[C@H]1CC[C@H]2[C@@H]3[C@H](O)C[C@@H]4C[C@@H](NCCCNCCCCNCCCN)CC[C@]4(C)[C@H]3CC[C@]12C` [Compound 413], in test [2] (1 μg applied), the vitelline capillary regression was determined as 0. Further, the “tadpole response similar to compound 1436” value in test [3] is “produce effects like those produced by compound 1436”.
Turning to `C[C@H](CCC(=O)O)[C@H]1CC[C@H]2[C@@H]3[C@H](O)C[C@@H]4C[C@H](NCCN)CC[C@]4(C)[C@H]3CC[C@]12C` [Compound 414], the vitelline capillary regression in test [2] (1 μg applied) came out at 0. Moreover, the “tadpole response similar to Fraction 1” value in test [3] is “pharmacologic activity similar to Fraction 1”.
On to `COC(=O)CC[C@@H](C)[C@H]1CC[C@H]2[C@@H]3CC[C@H]4C[C@H](NCCCNCCCCNCCCN)CC[C@]4(C)[C@H]3CC[C@]12C` [Compound 458], for which the “tadpole response similar to FX 3” value in test [3] is “exhibiting pharmacologic activity similar to that seen for FX 3”.
Turning to `COC(=O)CC[C@@H](C)[C@H]1CC[C@H]2[C@@H]3CC[C@H]4C[C@@H](NCCCNCCCCNCCCN)CC[C@]4(C)[C@H]3CC[C@]12C` [Compound 459], the “tadpole response similar to FX 3” value in test [3] is on record as “exhibiting pharmacologic activity similar to that seen for FX 3”.
Turning to `COC(=O)CC[C@@H](C)[C@H]1CC[C@H]2[C@@H]3C[C@@H](O)[C@H]4C[C@H](NCCCNCCCCNCCCN)CC[C@]4(C)[C@H]3CC[C@]12C` [Compound 465], in test [3], the “tadpole response similar to FX 3” value is “exhibiting pharmacologic activity similar to that seen for FX 3”.
On the same count and under the same terms, next, `COC(=O)CC[C@@H](C)[C@H]1CC[C@H]2[C@@H]3C[C@@H](O)[C@H]4C[C@@H](NCCCNCCCCNCCCN)CC[C@]4(C)[C@H]3CC[C@]12C` [Compound 466]: “exhibiting pharmacologic activity similar to that seen for FX 3”.
Regarding `CC(C)CCC[C@@H](C)[C@H]1CC[C@H]2[C@@H]3[C@H](O)C[C@H]4C[C@H](N)CC[C@]4(C)[C@H]3CC[C@]12C` [Compound 1363], in test [3], the “tadpole response similar to Fraction 1” value is listed as “pharmacologic activity similar to Fraction 1”.
In turn, `COC(=O)CCC(C)[C@H]1CCC2C3CC[C@H]4C[C@H](NCCCNCCCCNCCCN)CC[C@]4(C)C3CC[C@@]21C` (stereo partly shown) [drawing 74] showed an MIC in test [1] of 64 µg/mL (≈ 111 µM).

These data come from US5795885A, “Method of inhibiting profileration of cells by administering an aminosterol compound” (priority 1995, dated 1998).
